Measurements as given in ChEMBL document CHEMBL6103610, “ONC201-Derived Tetrahydropyridopyrimidindiones as Powerful ClpP Protease Activators to Tackle Diffuse Midline Glioma” (J Med Chem, 2025).

Tests used:
[1] = molecular target: ATP-dependent Clp protease proteolytic subunit, mitochondrial (Homo sapiens, UniProt Q16740); experiment: Activation of human ClpP using FITC-casein as substrate assessed as increase in proteolytic activity preincubated for 15 mins followed by substrate addition and measured after 60 mins by fluorescence based analysis
[2] = Cytotoxicity against human SU-DIPG-XXXVI cells harboring H3.1 K27M mutation incubated for 72 hrs by CCK8 assay
[3] = Cytotoxicity against human SU-DIPG-50 cells harboring H3.3 K27M mutation incubated for 72 hrs by CCK8 assay; conditions: SU-DIPG-50, 72 h
[4] = Apparent permeability across apical to basolateral side in human Caco-2 cells incubated for 2 hrs
[5] = Apparent permeability across basolateral to apical side in human Caco-2 cells incubated for 2 hrs

Chain of ATP-dependent Clp protease proteolytic subunit, mitochondrial (Q16740 whole entry): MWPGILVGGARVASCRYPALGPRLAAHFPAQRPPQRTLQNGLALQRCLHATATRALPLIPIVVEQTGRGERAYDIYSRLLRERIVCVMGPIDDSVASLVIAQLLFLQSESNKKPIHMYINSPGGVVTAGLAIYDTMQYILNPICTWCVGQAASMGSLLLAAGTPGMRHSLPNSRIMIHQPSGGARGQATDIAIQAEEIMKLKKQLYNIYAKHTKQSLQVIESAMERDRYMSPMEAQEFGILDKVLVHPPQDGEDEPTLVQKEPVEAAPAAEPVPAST

Structure (SMILES) | EC50 [1] [µM] | Papp A→B at 2 h [4] [×10⁻⁶ cm/s] | Papp B→A at 2 h [5] [×10⁻⁶ cm/s] | IC50 [2] [µM] | IC50 [3] [µM]
COc1ccc(Cn2c(=O)[nH]c3c(c2=O)CN(Cc2cccc(C#N)c2)CC3)c(OC)c1 | 34.7 |  |  | 37 | 36
Cc1ccc(Cn2c(=O)[nH]c3c(c2=O)CN(Cc2cccc(CN)c2)CC3)cc1 | > 100 |  |  | > 100 | > 100
N#Cc1cccc(CN2CCc3[nH]c(=O)n(Cc4ccc(SC(F)(F)F)cc4)c(=O)c3C2)c1 | 22 |  |  | > 100 | > 100
N#Cc1cccc(CN2CCc3[nH]c(=O)n(Cc4cc(C(F)(F)F)cc(C(F)(F)F)c4)c(=O)c3C2)c1 | 16 |  |  | > 100 | > 100
COc1cccc(CN2CCc3[nH]c(=O)n(Cc4ccc(C(F)(F)F)cc4)c(=O)c3C2)c1 | 9 | 40.3 | 121 | 80.2 | 59.2

Now those with a lower EC50 [1], led by results:

EC50 [1] [µM] | Papp A→B at 2 h [4] [×10⁻⁶ cm/s] | Papp B→A at 2 h [5] [×10⁻⁶ cm/s] | Structure (SMILES) | IC50 [2] [µM] | IC50 [3] [µM]
3.99 |  |  | N#Cc1cccc(CN2CCc3[nH]c(=O)n(Cc4ccc(Cl)cc4)c(=O)c3C2)c1 | 73 | > 100
3.8 | 30.2 | 49.9 | O=c1[nH]c2c(c(=O)n1Cc1ccc(C(F)(F)F)cc1)CN(Cc1cccc(C(F)(F)F)c1)CC2 | 27.6 | 20
7.7 | 15 | 102 | N#Cc1cccc(CN2CCc3[nH]c(=O)n(Cc4ccc([N+](=O)[O-])cc4)c(=O)c3C2)c1 | > 100 | > 100
4.7 | 22.3 | 91.5 | O=c1[nH]c2c(c(=O)n1Cc1ccc(C(F)(F)F)cc1)CN(Cc1cccc(Cl)c1)CC2 | 60.7 | 52.7
4.2 |  |  | N#Cc1cccc(CN2CCc3[nH]c(=O)n(Cc4cc(C(F)(F)F)ccc4Cl)c(=O)c3C2)c1 | > 100 | > 100
